{"source": "patent EP0315097A2", "about": "“Acyl labdane derivatives, process for their preparation and their use as medicines” (HOECHST AKTIENGESELLSCHAFT, priority 1987, dated 1989)", "key": {"[1]": {"system": "Katze", "test": "Blood pressure lowering in the anaesthetised cat, femoral artery pressure", "format": "in vivo", "conditions": "for Abfall d. BD: Chloralose-Narkose; for Dauer: duration of the blood pressure lowering effect", "excerpt": "3 bis 4 kg schwere Katzen beider Geschlechter werden mit Äther anästhesiert und unter Chloralose-Narkose (70 mgkg i.v.) gehalten. Sowohl die Oberschenkel-Arterie als auch die -Vene werden zur Aufzeichnung des Blutdrucks bzw. zur Verabreichung der Arzneimittel mit Kanülen versehen. Der Blutdruck in der Oberschenkelarterie wird über einen Druckaufnehmer Statham P 23 Db auf einem Nihon-Kohden-Schreiber für physiologische Zwecke ausgezeichnet. Die zu prüfende Verbindung wird in destilliertem Wasser gelöst und intravenös verabreicht. Der Blutdruckabfall und die Dauer der blutdrucksenkenden Wirkung werden notiert.\n(§1) Die bei diesem Modell für repräsentative erfindungsgemäße Verbindungen erhaltenen Ergebnisse sind in der nachfolgenden Tabelle aufgeführt: […]"}, "[2]": {"system": "wachen Kaninchen", "test": "Intraocular pressure (IOD) measurement in the conscious rabbit, Schioetz tonometer", "format": "in vivo", "conditions": "Dosis Prozent 2 (2 %ige Lösung, 100 µl instilled into one eye); for IOD-senkende Wirkung % Abnahme des IOD: decrease calculated from the baseline value; for IOD-senkende Wirkung Dauer: duration of the IOD-lowering effect", "excerpt": "Für diesen Versuch werden 2 bis 3 kg schwere Kaninchen beider Geschlechter verwendet. Der intraokulare Druck (IOD) wird mit einem Schioetz-Tonometer nach Hornhaut-Anästhesie mit 2 %iger Novocainlösung gemessen. Zur Herstellung einer 2 %igen Lösung wird eine erfindungsgemäße Verbindung unter Verwendung der stöchiometrischen Menge 0,1 n-HCI, bzw. deren Salz direkt in Wasser gelöst. Nach Ermittlung des Ausgangswertes werden 100 u.l der Lösung der Testverbindung in eines der Augen, das Vehikel in das andere Auge instilliert. Der IOD wird in bestimmten Zeitabständen, d.h. 0,5; 1, 2, 3, 4 und 5 Stunden gemessen. Die prozentuale Abnahme des IOD wird anhand des Ausgangswertes berechnet.\nas §1"}, "[3]": {"system": "Meerschweinchenvorhof", "test": "Positive inotropic activity, contraction force of isolated electrically stimulated guinea pig atrium", "parameters": "species or system Meerschweinchen", "conditions": "isolated left and right atria, Ringer-Lösung, 32 C, contraction force recorded 7 bis 10 Minuten", "excerpt": "Dafür wurde folgende Methode angewandt.\n400 g schwere Meerschweinchen beider Geschlechter werden getötet, das Herz entnommen und bei Raumtemperatur in Ringer-Lösung eingebracht. Sowohl der linke als auch der rechte Vorhof werden dann isoliert, an einem Organhalter befestigt und in eine Ringer-Lösung enthaltendes, bei einer Temperatur von 32 C gehaltenes Bad eingebracht. In das Organbad läßt man ein Gemisch von 95 % O2 und 5 % C02 einperlen. Dann stimuliert man den Vorhof elektrisch. Die zu prüfende erfindungsgemäße Verbindung wird in Wasser zu einer Lösung bekannter Konzentration gelöst und dem Bad zugesetzt. Die Kontraktionskraft des Vorhofs wird 7 bis 10 Minuten lang über einen isometrischen Dehnungsmeßstreifen auf einem 4-Kanal-Schreiber von Nihon Kohden registriert. Die Aktivität wird gemäß den erhaltenen Daten als ECso ausgedrückt.\nDie bei diesem Modell für repräsentative erfindungsgemäße Verbindungen erhaltenen Ergebnisse sind in der nachfolgenden Tabelle aufgeführt."}}, "data": [{"compound": "C=C[C@@]1(C)CC(=O)[C@]2(O)[C@@]3(C)[C@@H](O)CCC(C)(C)[C@@H]3[C@H](OC(=O)CCN3CCCCC3)[C@H](OC(=O)N(CC)CC)[C@@]2(C)O1", "note": "[R6=[drawing], R7=CON(C2H5)2 (the 5th table, row 3)]", "values": [{"measurement": "Abfall d. BD", "setting": "[1]; Dosis 1 mg/kg intravenös", "result": 20}, {"measurement": "Dauer", "setting": "[1]; Dosis 1 mg/kg intravenös", "result": 60, "unit": "min"}]}, {"compound": "C=C[C@@]1(C)CC(=O)[C@]2(O)[C@@]3(C)[C@@H](O)CCC(C)(C)[C@@H]3[C@H](OC(=O)CCN3CCCCC3)[C@H](OC(=O)OCC)[C@@]2(C)O1", "note": "[R6=[drawing], R7=COOC2H5 (the 4th table, row 2)]", "values": [{"measurement": "IOD-senkende Wirkung % Abnahme des IOD", "setting": "[2]", "result": 20, "unit": "%"}, {"measurement": "IOD-senkende Wirkung Dauer", "setting": "[2]", "result": 300, "unit": "min"}]}, {"compound": "C=C[C@@]1(C)CC(=O)[C@]2(O)[C@@]3(C)[C@@H](O)CCC(C)(C)[C@@H]3[C@H](OC(=O)CN3CCCCC3)[C@H](OC(=O)N(CC)CC)[C@@]2(C)O1", "note": "[R6=COCH2N[drawing], R7=CON(C2H5)2]", "values": [{"measurement": "EC50", "setting": "[3]", "result": 0.44, "unit": "µg/mL"}]}, {"compound": "C=C[C@@]1(C)CC(=O)[C@]2(O)[C@@]3(C)[C@@H](O)CCC(C)(C)[C@@H]3[C@H](OC(=O)CN3CCCCC3)[C@H](OC(=O)OCC)[C@@]2(C)O1", "note": "[R6=[drawing], R7=COOC2H5 (the 4th table, row 4)]", "values": [{"measurement": "IOD-senkende Wirkung % Abnahme des IOD", "setting": "[2]", "result": 0, "unit": "%"}]}, {"compound": "C=C[C@@]1(C)CC(=O)[C@]2(O)[C@@]3(C)[C@@H](O)CCC(C)(C)[C@@H]3[C@H](OC(=O)CCN3CCCCC3)[C@H](OC(=O)OCC)[C@@]2(C)O1", "note": "[R6=[drawing], R7=COOC2H5 (the 5th table, row 2)]", "values": [{"measurement": "Abfall d. BD", "setting": "[1]; Dosis 1 mg/kg intravenös", "result": 40}, {"measurement": "Dauer", "setting": "[1]; Dosis 1 mg/kg intravenös", "result": ">20", "unit": "min"}]}, {"compound": "C=C[C@@]1(C)CC(=O)[C@]2(O)[C@@]3(C)[C@@H](O)CCC(C)(C)[C@@H]3[C@H](OC(=O)CCN3CCCCC3)[C@H](OC(=O)N(CC)CC)[C@@]2(C)O1", "note": "[R6=CO(CH2)2N[drawing], R7=CON(C2H5)2]", "values": [{"measurement": "EC50", "setting": "[3]", "result": 0.79, "unit": "µg/mL"}]}, {"compound": "C=C[C@@]1(C)CC(=O)[C@]2(O)[C@@]3(C)[C@@H](O)CCC(C)(C)[C@@H]3[C@H](OC(=O)CN3CCCCC3)[C@H](OC(=O)OCC)[C@@]2(C)O1", "note": "[R6=[drawing], R7=COOC2H5 (the 5th table, row 4)]", "values": [{"measurement": "Abfall d. BD", "setting": "[1]; Dosis 3 mg/kg intravenös", "result": 60}, {"measurement": "Dauer", "setting": "[1]; Dosis 3 mg/kg intravenös", "result": 60, "unit": "min"}]}, {"compound": "C=C[C@@]1(C)CC(=O)[C@]2(O)[C@@]3(C)[C@@H](O)CCC(C)(C)[C@@H]3[C@H](OC(=O)CCN3CCCCC3)[C@H](OC(=O)N(CC)CC)[C@@]2(C)O1", "note": "[R6=[drawing], R7=CON(C2H5)2 (the 4th table, row 3)]", "values": [{"measurement": "IOD-senkende Wirkung % Abnahme des IOD", "setting": "[2]", "result": 25, "unit": "%"}, {"measurement": "IOD-senkende Wirkung Dauer", "setting": "[2]", "result": 360, "unit": "min"}]}, {"compound": "C=C[C@@]1(C)CC(=O)[C@]2(O)[C@@]3(C)[C@@H](O)CCC(C)(C)[C@@H]3[C@H](OC(=O)CN3CCCCC3)[C@H](OC(=O)OCC)[C@@]2(C)O1", "note": "[R6=COCH2N[drawing], R7=COOC2H5]", "values": [{"measurement": "EC50", "setting": "[3]", "result": 1.6, "unit": "µg/mL"}]}, {"compound": "C=C[C@@]1(C)CC(=O)[C@]2(O)[C@@]3(C)[C@@H](O)CCC(C)(C)[C@@H]3[C@H](OC(=O)CN3CCCCC3)[C@H](OC(=O)N(CC)CC)[C@@]2(C)O1", "note": "[R6=[drawing], R7=CON(C2H5)2 (the 5th table, row 5)]", "values": [{"measurement": "Abfall d. BD", "setting": "[1]; Dosis 1 mg/kg intravenös", "result": 50}, {"measurement": "Dauer", "setting": "[1]; Dosis 1 mg/kg intravenös", "result": 20, "unit": "min"}]}, {"compound": "C=C[C@@]1(C)CC(=O)[C@]2(O)[C@@]3(C)[C@@H](O)CCC(C)(C)[C@@H]3[C@H](OC(=O)CN3CCCCC3)[C@H](OC(=O)N(CC)CC)[C@@]2(C)O1", "note": "[R6=[drawing], R7=CON(C2H5)2 (the 4th table, row 5)]", "values": [{"measurement": "IOD-senkende Wirkung % Abnahme des IOD", "setting": "[2]", "result": 20, "unit": "%"}, {"measurement": "IOD-senkende Wirkung Dauer", "setting": "[2]", "result": 420, "unit": "min"}]}]}
